Experimental data reported in ChEMBL document CHEMBL5104099, “Recent applications of seven-membered rings in drug design” (Bioorg Med Chem, 2022).
Converted amounts (≈) assume the structure as drawn.

Key:
[1] = target: Tyrosine-protein kinase BTK (Homo sapiens, UniProt Q06187); experiment: Inhibition of BTK in human whole blood; format: tissue-based
[2] = Aqueous solubility of the compound; format: physicochemical
[3] = target: Human immunodeficiency virus type 1 protease (Human immunodeficiency virus 1, UniProt Q72874); experiment: Binding affinity to HIV-1 protease assessed as inhibition constant incubated for 60 mins by mass spectrometric analysis

Tyrosine-protein kinase BTK, sequence (Q06187 whole entry): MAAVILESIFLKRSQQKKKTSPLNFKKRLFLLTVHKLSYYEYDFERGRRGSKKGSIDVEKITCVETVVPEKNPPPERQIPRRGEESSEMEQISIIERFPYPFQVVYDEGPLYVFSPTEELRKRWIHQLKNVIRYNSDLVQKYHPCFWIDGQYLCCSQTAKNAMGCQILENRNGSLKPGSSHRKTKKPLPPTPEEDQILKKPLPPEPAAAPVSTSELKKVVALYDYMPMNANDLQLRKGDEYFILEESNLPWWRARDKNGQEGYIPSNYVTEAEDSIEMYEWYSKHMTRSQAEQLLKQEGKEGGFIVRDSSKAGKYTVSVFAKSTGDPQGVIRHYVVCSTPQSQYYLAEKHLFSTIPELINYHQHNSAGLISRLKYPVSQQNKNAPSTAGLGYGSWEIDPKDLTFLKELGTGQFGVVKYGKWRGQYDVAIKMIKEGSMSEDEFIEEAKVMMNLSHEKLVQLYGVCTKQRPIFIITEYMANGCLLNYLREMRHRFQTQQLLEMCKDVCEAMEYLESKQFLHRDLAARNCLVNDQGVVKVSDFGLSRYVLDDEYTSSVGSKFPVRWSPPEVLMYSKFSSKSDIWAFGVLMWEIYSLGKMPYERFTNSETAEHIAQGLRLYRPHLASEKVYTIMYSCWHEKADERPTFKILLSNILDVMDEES

Cn1cc(-c2cccc(-n3ncc4cc(C(C)(C)C)cc(F)c4c3=O)c2CO)cc(Nc2ccc(C(=O)N3CCOCC3)cn2)c1=O
IC50 [1]: 1 nM

Cn1c2c(cc(Nc3ccc(C(=O)N4CCOCC4)cn3)c1=O)-c1cccc(-n3ncc4cc(C(C)(C)C)cc(F)c4c3=O)c1C[C@H](O)C2
solubility [2]: 1 µg/mL (≈ 1.5 µM)

CC(C)[C@H]1Cc2cc(F)ccc2S(=O)(=O)N(C[C@@H](O)[C@H](Cc2ccccc2)NC(=O)O[C@H]2CCOC2)C1
Ki [3]: 0.36 nM
